# Laboratory results: patent US12661308B2, “Antimicrobial AZO compounds and uses thereof” (The Regents Of The University Of Colorado, A Body Corporate, priority 2019, dated 2026)
# Columns and labels:
# [1] = system: Methicillin-susceptible S. aureus biofilm; test: Biofilm growth study, S. aureus; type: cell-based, Staphylococcus aureus; conditions: 50 mg/mL coated substrate, 24 h time-period
# Description: Methicillin-susceptible S. aureus biofilms were grown from a 20 h BHI liquid culture inoculated with an S. aureus colony. The liquid culture was diluted 10^3 to a stock solution in BHI, then diluted 1:10 in BHI media containing 0.4 wt. % glucose in a 96-well plate. The plate was incubated in the dark at 37 ° C. for 24 h.
# Following biofilm growth in the 96-well plate, the substrates were aseptically removed from the 96-well plate and placed in a vial containing 5 mL of 1× PBS solution. The vials were sonicated in a water bath for 10 min at 45° C., and the wells that previously contained the substrates were briefly sonicated using a probe sonicator (3 W RMS output) for 10 s per well. 200 μL aliquots of the sonicated PBS solution were placed in a 96-well plate and diluted 1:10 in each subsequent row. 20 μL aliquots of the sonicated media wells were placed in a 96-well plate containing 180 μL of PBS solution and diluted 1:10 in each subsequent row. Each column was then plated at a volume of 10 μL on a BHI agar plate in triplicate. The plates were then incubated at 37° C. and 5% CO2 for 48 h. The CFUs on each plate were counted in order to quantify the amount of biofilm remaining on the surface of the substrate and the bacteria remaining in the media after the removal of the substrate using the following equations: […]
# [2] = system: S. mutans (ATCC 25175) biofilm; test: Detachment study of S. mutans biofilm on monomer-coated polymeric substrates (Example 1); type: cell-based, Streptococcus mutans
# Description: The polymeric substrates were prepared by mixing 54 wt % methyl methacrylate (MMA), 30 wt % polymethylmethacrylate (PMMA, MW ˜35 k), and 16 wt % tetraethylene glycol dimethacrylate (TEGDMA) at 70° C. for 2 hr. After mixing, 1 wt. % azobisisobutyronitrile (AIBN) was added to the formulation as an initiator and mixed.
# The mixed formulation was added to circular molds (diameter=6.5 mm) cut from a strip of rubber (thickness=0.9 mm) and pressed between two glass microscope slides. The mold was clamped together and thermally cured at 80° C. for 1.5 hr.
# The polymeric substrates were coated as follows. Coating solutions were prepared having the following monomer concentrations (see FIG. 3 for structures of the monomers): 0.5 mg/mL and 50 mg/mL solutions of a phenolic acrylated azobenzene monomer (OH-AAZO), 50 mg/mL acrylated azobenzene monomer (AAZO), 50 mg/mL 4-hydroxyl benzylacrylate (HBA), 50 mg/mL 2-hydroxylethyl methacrylate (HEMA).
# The coating solutions included the monomer in N,N′-dimethylformamide (DMF) along with 0.5 mg/mL of AIBN and 0.1 mg/mL of Rhodamine B as an indicator dye. Once mixed, 3 μL of each coating solution was pipetted onto one side of the polymeric substrate and spun at 1000 RPM for 1 min followed by spinning at 6000 RPM for 3 s. The coating was cured under a nail lamp (Melody Susie UV Gel Nail Polish Dryer, Model DR-301C) for at least 15 min before repeating the coating procedure on the other side.
# The controlled growth of biofilms varied depending on the bacteria strain. In the case of S. mutans, a BHI agar plate was streaked with S. mutans (ATCC 25175) and allowed to incubate at 37° C. in 5% CO2 for 60 hr to isolate a single bacterial colony. The colony was inoculated in 5 mL of BHI and allowed to incubate statically in the 5% CO2 incubator for 24 hr. The stock solution was diluted 1:50 in a 96-well plate containing the substrates of interest and allowed to incubate in the 5% CO2 incubator for an additional 24 hr.
# The detachment study quantified the biofilm grown on each substrate via a series of washes in 1×PBS. The substrate was irradiated using a dental lamp (FlashMax P3 Ortho™, 1900 mW/cm2, wavelength=450-470 nm) on the underside of the vial for a total of ten 3 s irradiations per side. Following the series of washes, the substrate was sonicated for 10 min to remove the residual biofilm on the substrate. The wash solutions were serial diluted, plated, and grown at 37° C. and 5% CO2 to obtain the CFU count.
# Images collected from a digital microscope (Zeiss Axioplan II microscope, 630×, step size 0.1 μm) after the substrate and bacteria were treated with BACLIGHT Live/Dead stain are included in FIG. 4.
# [3] = system: S. pneumoniae (Pneumonococcus, Pn); test: Growth study, S. pneumoniae; type: cell-based, Streptococcus pneumoniae; conditions: 50 mg/ML coated substrates, BHI media, 24 h time-period
# Description: (§1) A single bacterial colony was inoculated in 4 mL BHI media. The colony was grown to mid-log phase (to approximately OD600=0.4), statically at 37° C., which for was approximately 4 hours for the S. agalactiae GBS, approximately 11 hours for the S. pyogenes GAS, and approximately 6 hours for the S. pneumaoniae. They were diluted 1:5 in 80% glycerol (in water) solution (4 parts culture, 1 part glycerol, for a final glycerol concentration of 16%). In a 96-well plate, each was diluted to 1:100 resulting in a final concentration of 1×10^6 CFU/mL and grown at 37° C. with 5% CO2.
# [4] = system: S. pyogenes (Group A strep, GAS); test: Growth study, S. pyogenes (Group A strep); type: cell-based, Streptococcus pyogenes; conditions: 50 mg/ML coated substrates, BHI media, 24 h time-period
# Description: as §1
smiles,measurement,setting,value
"C=CC(=O)Oc1ccccc1/N=N/c1ccccc1O [OH-AAZO, phenolic acrylated azobenzene]",antibacterial effect on S. aureus biofilm (CFUs),[1],no discernable antibacterial effect or reduction in CFUs
same,antibacterial effect against S. mutans,"[2]; 0.5 mg/mL coating solution, compared with 50 mg/mL coating",did not result in the same antibacterial effect
same,S. mutans growth on the surface of the coated substrate,"[2]; 50 mg/mL coating, even prior to light/wash treatment",no growth at all
same,"S. mutans biofilm on substrate, Live/Dead stain microscopy",[2]; prior to wash/light treatment,comparatively very little biofilm
same,S. pneumoniae growth on coated substrate and in media,[3],did not grow on the coated substrate nor in the media
same,S. pyogenes growth on coated substrate and in media,[4],did not grow on the coated substrate nor in the media
